Experimental data as given in patent US8507714B2, “7-membered ring compound and method of production and pharmaceutical application thereof” (Daiichi Sankyo Company, Limited, priority 2004, dated 2013).

Assays:
[1] = system: DNFB-induced dermatitis in C3H/HeN mice; conditions: 10 mg/kg orally once a day; 24 hours after DNFB application at fifth application; female C3H/HeN mice
Procedure: Effect of Test Compounds on Dermatitis Model Induced by Repeated Application of Hapten
As a control group, acetone:olive oil (1:3) was applied by the same protocol. Ear thickness was measured at every week before DNFB application and 24, 48 and 72 hours after DNFB application by using microgauge (Mitutoyo), and ear edema was evaluated by the increase in ear thickness compared to the ear thickness before the first DNFB application. […] The test compound was suspended in 0.5% hydroxypropylcellulose in distilled water (hereinafter referred to as “0.5% HPC-distilled water”) and was administered orally at doses of 2 and 10 mg/kg once a day, every day from just before the first application of hapten to the end of the experiment. Further, as a control, 0.5% HPC-distilled water instead of the test compound was administered by the same methods. The number of mice used in this experiment was seven per group.

**Q.** For `COc1ccc(F)cc1/C=C1\CNC(=O)CN(S(=O)(=O)c2ccc(Cl)s2)C1=O`, which melting point is on record?
**A.** 150 to 153 °C

**Q.** For `CC[C@@H](NC(=O)N1CC(=O)NC[C@@H](Cc2cc(Cl)ccc2OC)C1=O)c1cccc(C(=O)[O-])c1.[Na+]`, which melting point is on record?
**A.** 161 to 163 °C

**Q.** Which melting point does the source give for `COC(=O)C[C@@H]1C(=O)NC[C@H](Cc2cc(F)ccc2OC)C(=O)N1S(=O)(=O)c1ccc(Cl)cc1` here?
**A.** 73 to 76 °C

**Q.** With `CC[C@@H](NC(=O)N1CC(=O)NCC(Cc2cc(Cl)ccc2OC)C1=O)C(=O)Nc1nnn[nH]1` (some centres unmarked) as the compound, how does the melting point read?
**A.** 141 to 142 °C

**Q.** Which melting point does the source give for `CC[C@@H](NC(=O)N1CC(=O)NCC(Cc2cc(Cl)ccc2OC)C1=O)C(=O)Nc1ccc(C)c(C(=O)O)c1` (some centres unmarked) here?
**A.** 132 to 134 °C

**Q.** For `COC(=O)COc1ccc(Cl)cc1CC1CNC(=O)CN(S(=O)(=O)c2ccc(Cl)cc2)C1=O` (centres unmarked), which melting point is on record?
**A.** 138 to 140 °C

**Q.** With `O=C(CN1CC(Cc2ccccc2)C(=O)N(S(=O)(=O)c2ccc(Cl)cc2)CC1=O)NCc1ccccc1` (centres unmarked) as the compound, how does the melting point read?
**A.** 187 to 190 °C

**Q.** For `COc1ccc(Cl)cc1CC1CNC(=O)CN(C(=O)Nc2cccc(NC(C)=O)c2)C1=O` (centres unmarked), which melting point is on record?
**A.** 130 to 131 °C

**Q.** Which melting point does the source give for `Cc1cccc(CC2CNC(=O)CN(S(=O)(=O)c3ccc(Cl)cc3)C2=O)c1` (centres unmarked) here?
**A.** 64 to 66 °C

**Q.** With `N#Cc1ccc(S(=O)(=O)N2CC(=O)NC/C(=C\c3ccccc3)C2=O)cc1` as the compound, how does the melting point read?
**A.** 239 °C (dec.)

**Q.** For `COc1ccc(Cl)cc1C[C@H]1CNC(=O)[C@@H](C)N(S(=O)(=O)c2ccc(Cl)cc2)C1=O`, which melting point is on record?
**A.** 78 to 80 °C

**Q.** With `COc1cc(Cl)c(F)cc1CC1CNC(=O)CN(S(=O)(=O)c2ccc(Cl)cc2)C1=O` (centres unmarked) as the compound, how does the melting point read?
**A.** 80 to 90 °C

**Q.** Which melting point does the source give for `COc1ccc(Cl)cc1CC1CNC(=O)CN(S(=O)(=O)c2ccc(Cl)cc2)C1=O` (centres unmarked) [Compound 29, 6-(5-chloro-2-methoxybenzyl)-4-[(4-chlorophenyl)sulfonyl]-1,4-diazepan-2,5-dione] here?
**A.** 110 to 112 °C

**Q.** What about the “inhibition rate of the skin reaction” value [1] of the same compound?
**A.** 31.0%

**Q.** With `COc1ccc(Cl)cc1CC1CNC(=O)CN(S(=O)(=O)c2ccc(Cl)c(N)c2)C1=O.Cl` (centres unmarked) [Compound 90, 4-[(3-amino-4-chlorophenyl)sulfonyl]-6-(5-chloro-2-methoxybenzyl)-1,4-diazepan-2,5-dione Hydrochloride] as the compound, how does the “inhibition rate of the skin reaction” value [1] read?
**A.** 25.1%

**Q.** For `CC[C@@H](NC(=O)N1CC(=O)NC[C@@H](Cc2cc(Cl)ccc2OC)C1=O)c1cccc(C(=O)O)c1` [Compound 91, 3-[(1R)-1-({[(6R)-6-(5-chloro-2-methoxybenzyl)-3,7-dioxo-1,4-diazepan-1-yl]carbonyl}amino)propyl]benzoic Acid], which melting point is on record?
**A.** 121 to 123 °C

**Q.** What about the “inhibition rate of the skin reaction” value [1] of the same compound?
**A.** 26.1%
